Tests used:
H3 receptors = target: T1, H3 receptors (Cavia porcellus, UniProt Q9JI35); test: H3-Receptor Binding Assay (guinea pig brain membranes); conditions: HCl salt of the indicated compound, 3 nM [3H]R-α-methyl histamine or [3H]Nα-methyl histamine, read-out: H3 Ave Ki
T1 construct: The source of the H3 receptors in this experiment was guinea pig brain; from tissue; host or cells: guinea pig brain membranes
Description: General Procedure for H3-Receptor Binding Assay
The source of the H3 receptors in this experiment was guinea pig brain. The animals weighed 400-600 g. The brain tissue was homogenized with a solution of 50 mM Tris, pH 7.5. The final concentration of tissue in the homogenization buffer was 10% w/v. The homogenates were centrifuged at 1,000×g for 10 min. in order to remove clumps of tissue and debris. The resulting supernatants were then centrifuged at 50,000×g for 20 min. in order to sediment the membranes, which were next washed three times in homogenization buffer (50,000×g for 20 min. each). The membranes were frozen and stored at −70° C. until needed.
All compounds to be tested were dissolved in DMSO and then diluted into the binding buffer (50 mM Tris, pH 7.5) such that the final concentration was 2 μg/ml with 0.1% DMSO. Membranes were then added (400 μg of protein) to the reaction tubes. The reaction was started by the addition of 3 nM [^3H]R-α-methyl histamine (8.8 Ci/mmol) or 3 nM [^3H]N^α-methyl histamine (80 Ci/mmol) and continued under incubation at 30° C. for 30 min. Bound ligand was separated from unbound ligand by filtration, and the amount of radioactive ligand bound to the membranes was quantitated by liquid scintillation spectrometry.

Histamine H1 receptor = target: T2, Histamine H1 receptor (Rattus norvegicus, UniProt P31390); test: H1-Receptor Binding Assay (rat brain membranes, [3H]pyrilamine); conditions: HCl salt of the indicated compound, male Sprague-Dawley rat brain membranes, Cheng-Prusoff, read-out: H1 Ave Ki
T2 construct: The tissue source was male Sprague-Dawley rat brain; tissue Rockland Corporation, Gilbertsville, Pa; host or cells: male Sprague-Dawley rat brain membranes
Description: General Procedure for H1-Receptor Binding Assay
The procedure used was based on that disclosed in V. T. Tran, R. S. L. Chang, and S. hr. Snyder, “Histamine H1 receptors identified in mammalian brain membranes with [H-3]mepyramine”, Proc. Natl. Acad. Sci. U.S.A 75 (1978) 6290-6294.
I. Tissue Preparation Protocol for Histamine H1 Receptor Binding Assay
1. The tissue source was male Sprague-Dawley rat brain. These were purchased stripped and frozen (available from Rockland Corporation, Gilbertsville, Pa.). The buffer used was ice-cold 50 mM Tris-HCl, pH 7.5. (The pH was determined at 25° C.)
2. The brains were spread out on plastic wrap on the benchtop and allowed to thaw for 10-15 min. After this, everything was kept ice-cold.
3. Two brains were put in each 50 mL round bottom centrifuge tube and 25 mL of buffer was added. Then they were broken up with a Polytron (from Brinkmann Instruments, Westbury, N.Y.) equipped with a PT-10 tip at setting 6 for 30 sec.
4. The volume in the tube was brought up to 45 mL and mixed and the particulate material was centrifuged at 1000×g (3000 rpm, SS-34 rotor) for 10 min to remove nuclei and unbroken cells.
5. Pellets were discarded and the supernatants were centrifuged 10 min at 50,000×g (20,000 rpm, SS-34 rotor).
6. The high-speed pellets were resuspended in a volume of Tris buffer equal to the original (4 mL), the contents of all tubes were pooled, and a sample was taken for BCA protein assay. The material was aliquotted, 45 mL per round-bottom tube, and the resuspension was recentrifuged. The yield of protein was approximately 20 mg/brain, so there was about 40 mg of protein per tube.
7. Pellets were frozen at −80° C.
II. H1 Histamine Receptor Binding Assay
1. FDCL and comparative compounds for assay were independently solubilized at 1 mg/ml DMSO by vortexing, or if necessary by sonication. The first dilution, 100-fold, was made in 50 mM Tris-HCl, pH 7.5, at room temperature. The three or four subsequent ten-fold serial dilutions were made in 1% DMSO/50 mM Tris-HCl, pH 7.5. Drug solutions and assay plates were kept at room temperature during the course of the assay set up.
2. Test compounds were assayed at four or five concentrations: 1, 0.1, 0.01, 0.001, and 0.0001 μg/ml. Twenty μl of drug solution was pipeted into each of three wells.
3. [^3H]Pyrilamine was diluted approximately 2000-fold with ice-cold […] Tris-HCl, pH 7.5 (to a working concentration of 20-25 nM), and put on ice.
4. A frozen tissue pellet was thawed in a 25° C. water bath, resuspended in 50 mM Tris-HCl, pH 7.5, at 1.7-2 mg/ml by brief break-up on the Polytron, and put on ice.
5. Twenty μl of diluted [^3H]pyrilamine was added to each well.
6. One hundred fifty μl of tissue suspension was added to each well.
7. The top of the plate was covered and it was placed in a 25° C. shaking water bath (about 60 oscillations/min) for 30 min.
8. Samples were filtered on a Tomtec Mach 2 harvester (available from Tomtec Corporation, Orange, Conn.) through a GF/B filter mat (from Wallac, Inc., Gaithersburg, Md.) presoaked in 0.3% polyethylenimine. Each sample was thrice washed with ice-cold 50 mM Tris-HCl, pH 7.5 dried 20 sec on the Tomtec, and dried 3-4 min in a microwave oven on a paper towel. The filter was impregnated with MELTILEX brand wax scintillant (from Wallac Corporation) and counted on a Betaplate scintillation counter (from Wallac Corporation).
9. Specific binding was determined as the difference between total and nonspecific binding. The percent inhibition in the presence of inhibitor or standard was determined using the formula:
[1-(sample binding-nonspecific binding)/specific binding]×100
For compounds that inhibit more than 50% at 1 μg/ml, an IC50 value was interpolated from proximate concentrations. […]

T2 sequence (P31390 whole entry): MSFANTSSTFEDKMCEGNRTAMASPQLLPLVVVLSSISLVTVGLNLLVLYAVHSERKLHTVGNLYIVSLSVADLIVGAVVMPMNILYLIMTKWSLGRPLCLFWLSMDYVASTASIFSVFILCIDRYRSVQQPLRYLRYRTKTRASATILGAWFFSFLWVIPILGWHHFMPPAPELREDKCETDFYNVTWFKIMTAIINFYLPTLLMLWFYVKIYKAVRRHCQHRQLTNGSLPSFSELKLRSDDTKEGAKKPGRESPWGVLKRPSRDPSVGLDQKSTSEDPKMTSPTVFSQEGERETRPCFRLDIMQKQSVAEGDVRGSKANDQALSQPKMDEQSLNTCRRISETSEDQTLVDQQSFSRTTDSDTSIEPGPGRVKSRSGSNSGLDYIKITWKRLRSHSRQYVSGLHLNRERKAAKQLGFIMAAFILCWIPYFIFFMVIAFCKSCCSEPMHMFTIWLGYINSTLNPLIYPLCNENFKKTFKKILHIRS
T1 sequence (Q9JI35 whole entry): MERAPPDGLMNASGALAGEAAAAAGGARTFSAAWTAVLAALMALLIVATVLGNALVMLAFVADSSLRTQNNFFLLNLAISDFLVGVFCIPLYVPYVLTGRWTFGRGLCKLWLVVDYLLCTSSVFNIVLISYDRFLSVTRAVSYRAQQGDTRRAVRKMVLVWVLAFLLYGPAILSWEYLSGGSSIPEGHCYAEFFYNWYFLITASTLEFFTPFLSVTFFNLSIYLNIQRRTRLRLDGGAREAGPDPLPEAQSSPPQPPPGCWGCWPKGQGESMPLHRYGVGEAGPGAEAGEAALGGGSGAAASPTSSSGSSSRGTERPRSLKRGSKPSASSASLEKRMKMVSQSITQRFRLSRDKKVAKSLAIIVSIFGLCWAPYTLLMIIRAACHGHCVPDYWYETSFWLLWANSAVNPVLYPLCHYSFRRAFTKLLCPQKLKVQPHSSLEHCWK

Row | Ki (H3 receptors) | Ki (Histamine H1 receptor) | Compound
1 | 29 nM | 201 nM | N=C(CCCc1c[nH]cn1)NCCC(c1ccc(Cl)cc1)c1ccccn1 (stereo not shown)
2 | 8 nM | – | N=C(CC(c1ccc(Cl)cc1)c1ccccn1)NCCc1c[nH]cn1 (stereo not shown)
3 | 16 nM | – | O=C(CC(c1ccc(Cl)cc1)c1ccccn1)NCCc1c[nH]cn1 (stereo not shown)
4 | 0.8 nM | – | O=C(CC(c1ccc(Cl)cc1)c1ccccn1)NCCCCc1c[nH]cn1 (stereo not shown)
5 | 1 nM | – | CN(CCc1c[nH]cn1)C(=O)CC(c1ccc(Cl)cc1)c1ccccn1 (stereo not shown)
6 | 56 nM | 600 nM | Clc1ccc(C(CCNCCc2c[nH]cn2)c2ccccn2)cc1 (stereo not shown)
7 | 6.5 nM | – | CN(CCCCc1c[nH]cn1)C(=O)CC(c1ccc(Cl)cc1)c1ccccn1 (stereo not shown)
8 | 510 nM | – | O=C(CCc1c[nH]cn1)NCCC(c1ccc(Cl)cc1)c1ccccn1 (stereo not shown)
9 | 260 nM | 1000 nM | CN(CCC(c1ccc(Cl)cc1)c1ccccn1)C(=O)CCc1c[nH]cn1 (stereo not shown)
10 | 240 nM | – | Clc1ccc(C(CCNCCCc2c[nH]cn2)c2ccccn2)cc1 (stereo not shown)
11 | 10 nM | 254 nM | Clc1ccc(C(CCNCCCCc2c[nH]cn2)c2ccccn2)cc1 (stereo not shown)
12 | 120 nM | 10 nM | CN(CCCc1c[nH]cn1)CCC(c1ccc(Cl)cc1)c1ccccn1 (stereo not shown)
13 | 23 nM | 83.5 nM | Clc1ccc(C(CCN(CCCCc2c[nH]cn2)CCCCc2c[nH]cn2)c2ccccn2)cc1 (stereo not shown)
14 | 6 nM | – | Clc1ccc(C(NCCCCc2c[nH]cn2)c2ccccc2)cc1 (stereo not shown)
15 | 15 nM | 7 nM | CN(CCCCc1c[nH]cn1)CCC(c1ccc(Cl)cc1)c1ccccn1 (stereo not shown)
16 | 160 nM | 120 nM | C[N+](C)(CCCCc1c[nH]cn1)CCC(c1ccc(Cl)cc1)c1ccccn1 (stereo not shown)
17 | 2 nM | – | Clc1ccc(C(NCCCCc2c[nH]cn2)c2ccc(Cl)cc2)cc1
18 | 36 nM | – | O=C(CC(c1ccccc1)c1ccccc1)NCCCCc1c[nH]cn1
19 | 33.5 nM | – | O=C(NCCCCc1c[nH]cn1)C(c1ccc(Cl)cc1)c1ccc(Cl)cc1
20 | 37 nM | – | O=C(/C=C(\c1ccc(Cl)cc1)c1ccccn1)NCCc1c[nH]cn1
21 | 260 nM | – | O=C(NCCC(c1ccc(Cl)cc1)c1ccccn1)OCCc1c[nH]cn1 (stereo not shown)
22 | 8.5 nM | – | O=C(CC(c1ccc(Cl)cc1)c1cccc[n+]1[O-])NCCCCc1c[nH]cn1 (stereo not shown)
23 | 50 nM | – | O=C(CC(c1ccc(Br)cc1)c1ccccn1)NCCCCc1c[nH]cn1 (stereo not shown)

Reference: patent US6518287B2, “Substituted imidazoles as dual histamine H1 and H3 agonists or antagonists” (Schering Corporation, priority 2000, dated 2003)
